The test system of test [1] is human PMN (neutrophils). The test is described as follows: Inhibition of FMLP-stimulated production of superoxide radical anions. In kind it is cell-based. The note with it: Neutrophil, read-out: IC50 O2^−. As for the experimental part:
1. Preparation of Human PMN
Blood was taken from healthy subjects by venous puncture and neutrophils were purified by dextran sedimentation and resuspended in the buffered medium.
2. Inhibition of FMLP-stimulated Production of Superoxide Racidal Anions.
Neutrophils (2.5×10^5 ml^−1) were mixed with cytochrome C (1.2 mg/ml) in the wells of a microtitre plate. Compounds according to the invention were added in dimethyl sulphoxide (DMSO). Compound concentration ranged from 2.5 nM to 10 μM, the DMSO concentration was 0.1% v/v in all wells. After addition of cytochalasin b (5 μg×ml^−1) the plate was incubated for 5 min at 37° C. Neutrophils were then stimulated by addition of 4×10^−8 M FMLP and superoxide generation measured as superoxide dismutase inhibitable reduction of cytochrome C by monitoring the OD550 in a microtitre plate spectrophotometer, e.g. a thermomax microtitre plate spectrophotometer. Initial rates were calculated using a kinetic calculation programme such as a softmax programme. Blank wells contained 200 units of superoxide dismutase.
The inhibition of superoxide production was calculated as follows: [formula]
Rx=Rate of the well containing the compound according to the invention.
Ro=Rate in the control well.
Rb=Rate in the superoxide dismutase containing blank well.

The target in test [2] is PMN phosphodiesterase (PDE IV). The experiment in a line: Assay of PMN phosphodiesterase. The note with it: particulate fraction from human PMN, treated with sodium vanadate/glutathione. In kind it is biochemical. How it is done:
4. Assay of PMN Phosphodiesterase
This was performed as a particulate fraction from human PMN essentially as described by Souness and Scott (Biochem. J. 291, 389-395, 1993). Particulate fractions were treated with sodium vanadate/glutathione as described by the authors to express the descrete stereospecific site on the phosphodiesterase enzyme.

One may read the IC50 as the concentration at which inhibition is half-maximal. For the molecule `Cc1ccc(C(=O)c2oc3cc(OS(=O)(=O)c4cn(C)cn4)ccc3c2NC(N)=O)c(C)c1` [Example 36], the IC50 was 0.007 µM in test [1] and 0.001 µM in test [2].

Turning to `CN(C)S(=O)(=O)Oc1ccc2c(NC(N)=O)c(C(=O)c3cc(Cl)ccc3Cl)oc2c1` [Example 46], the IC50 came out at 0.035 µM in test [1] and 0.006 µM in test [2].

Take `Cc1nn(C)c(Cl)c1S(=O)(=O)Oc1ccc2c(NC(N)=O)c(C(=O)c3ccc(F)cc3F)oc2c1` [Example 24]: the IC50 stood at 0.06 µM in test [1] and 0.13 µM in test [2].

As for `CC(=O)Nc1ccc(S(=O)(=O)Oc2ccc3c(NC(N)=O)c(C(=O)c4ccc(Cl)cc4)oc3c2)cc1` [Example 13], the IC50 amounted to 0.065 µM in test [1] and 0.021 µM in test [2].

Turning to `NC(=O)Nc1c(C(=O)c2ccc(Cl)cc2Cl)oc2cc(OS(=O)(=O)c3cccc4cccnc34)ccc12` [Example 49], the IC50 in test [1] and in test [2] was 0.001 µM throughout.

In the case of `NC(=O)Nc1c(C(=O)c2ccc(Cl)cc2Cl)oc2cc(OS(=O)(=O)c3ccc(-c4ccccn4)s3)ccc12` [Example 21], the values for the IC50 in test [1] and in test [2] were 0.02 µM and 0.04 µM, respectively.

`NC(=O)Nc1c(C(=O)c2ccc(Cl)cc2Cl)oc2cc(OS(=O)(=O)Cc3ccc(Cl)nc3)ccc12` [Example 47]: the values for the IC50 in test [1] and in test [2] were 0.02 µM and 0.033 µM, respectively.

(Values after US6610687B1, “Benzofuranylsulfonates” (Bayer Aktiengesellschaft, priority 1999, dated 2003).)
